Test results reported in US9388389B2, “JFH-1 based HCV cell culture systems for NS5A of genotypes 1-7” (Hvidovre Hospital, priority 2009, dated 2016).

What was measured:
[1] = system: Huh7.5 cells; assay: Spread of infection in culture, anti-Core immunostaining; type: cell-based; conditions: for percentage of culture infected: day 8 after transfection
Protocol: (§1) Culturing of Huh7.5 cells was done as described by Gottwein et al. 2007. One day prior to transfection or infection, naïve Huh7.5 cells were plated at 4×10^5/well in 6-well plates. In vitro transcription was carried out for 2 hours with T7 RNA polymerase (Promega) on 5 μg plasmid linearized with XbaI and treated with Mung Bean Nuclease (New England Biolabs, Beverly, Mass., USA) to yield the exact HCV 3′ end. For transfection, 2.5 μg of unpurified RNA transcripts were incubated with 5 μL Lipofectamine2000™ (Invitrogen) in 500 μL Opti-MEM (Invitrogen) for 20 min at room temperature. RNA-Lipofectamine2000™ transfection complexes were left on cells for 16-24 hours before washing. For infection, virus-containing supernatant was left on cells for 6-24 hours. Supernatants collected during experiments were sterile filtered and stored at −80° C.
(§2) Anti-Core immunostaining was done with mouse anti-HCV Core protein monoclonal antibody (B2) (Anogen Mississauga, Ontario, Canada) as primary antibody and Alexa Fluor 594 goat anti-mouse IgG (H+L) (Invitrogen) as secondary antibody. HCV RNA titers were determined by a TaqMan™ real-time PCR assay. Infectivity titers were determined as follows: 6×10^3 naïve Huh7.5 cells were plated per well in a poly-D-lysine coated 96-well plate (Nunc) one day before inoculation with three replicates of individual 10-fold dilutions of cell culture supernatants. Inocula were left on cells for 48 hours and cells were fixed using ice could methanol. After washing, blocking buffer (1% BSA, 0.2% skim milk) was added for 20 min and endogenous peroxidases were inhibited by application of H2O2 for 5 min. Primary antibody (anti-NS3, clone H26, Abcam, Cambridge, UK) diluted 1:1000 was left on cells for 3-4 days. Secondary antibody was ECL anti-mouse IgG HRP-linked whole antibody (GE Healthcare Amersham, Brondby, Denmark). Staining was developed using DAB substrate kit (DAKO, Glostrup, Denmark). The number of focus-forming units (FFU) per well were counted manually (dilutions with 5-100 FFU counted) or automatically. Automatic counting was performed on an ImmunoSpot Series 5 UV Analyzer™ (CTL Europe GmbH, Aalen, Baden-Württemberg, DE) with customized software. From FFU counts in experimental wells, the mean of spot counts of negative control wells was subtracted (typically around 5 spots).

[2] = system: Huh7.5 cells; assay: Infectivity titers (FFU) in supernatant after RNA transfection or viral passage; type: cell-based; conditions: for 1st passage Log(FFU/mL): maximum infectivity titer, two values separated by slash = two independent passages; for Peak titers Transfection Log (FFUs/mL) / Peak titers Viral passage Log (FFUs/mL): Table 2; for Peak titers Transfection Log (FFUs/mL): maximum infectivity titer observed in transfection experiments; for Peak titers Viral passage Log (FFUs/mL): maximum infectivity titer observed in viral passage experiments
Protocol: (§3) To determine the efficiency of the developed system, HCV RNA titers are determined in IU/ml (international units/ml) with Taq-Man Real-Time-PCR and infectious titers are determined with a focus-forming units (FFU) method: in this method, infectivity titers are determined by infection of cell culture replicates with serial dilutions of virus containing supernatants and, following immuno-stainings for HCV antigens, counting of HCV-antigen positive cell foci. Alternatively the infectious titers are determined as 50% tissue culture infectious dose.
as §1, §2

[3] = system: Huh7.5 cells; assay: Genetic stability, direct sequencing of complete ORF after passage; conditions: Table 2; ORF sequenced after passage to naïve cells
Protocol: RNA was extracted from cell culture supernatant using (Highly Pure Viral Nucleic Acid Kit™, Roche, Mannheim, Del.). RT-PCR was done using SuperScriptIII™ (Invitrogen, Carlsbad, Calif., USA). In 1st round PCR the Advantage 2 PCR Enzyme System was used. Cycle parameters were 35 s at 99° C., 30 s at 67° C. and 10 min (cycle 1-5), 11 min (cycle 6-15), 12 min (cycle 16-25) or 13 min (cycle 26-35) at 68° C. 12˜1 kb products were synthesized in overlapping nested PCRs covering the entire ORF using primer pairs as previously described. Primer pairs 8, 9 and 10 were modified to the genotype specific NS5A sequence (Table 20, SEQ ID NO 163-192). Cycle parameters were 35 s at 99° C. followed by 35 cycles with 35 s at 99° C., 30 s at 67° C. and 6 min at 68° C.
All sequence reactions were performed at Macrogen Inc., Seoul, South Korea. Sequence analysis was performed with Sequencher™ (Gene Codes Corporation) Vector NTI 11 (Invitrogen) and BioEdit™ (Tom Hall, Ibis Therapeutics). HCV sequences were retrieved from the European HCV database (euHCVdb; at the http: internet location //euhcvdb.ibcp.fr/euHCVdb/) and the Los Alamos HCV sequence database (LANL; at the http: Internet location //hcv.lanl.gov/content/hcv-db/index).
Genetic stability of NS5A recombinants after passage to naïve cells. Supernatant samples from transfection culture were passaged to naïve Huh7.5 cells and the complete ORF was sequenced after spread of infection in culture to check for further need of adaptation.

[4] = system: Huh7.5 cells; assay: HCV RNA titers by TaqMan real-time PCR; type: cell-based; conditions: for 1st passage Log(IU/mL): Table 1b, maximum HCV RNA titer, two values separated by slash = two independent passages
Protocol: as §3, §2

[5] = system: ED43(4a) NS5A recombinant; assay: IFN-alpha 2b treatment of infected cultures; type: cell-based, hepatitis C virus; conditions: genotype 4a, isolate ED43 NS5A recombinant
Protocol: (§4) Huh7.5 cells were infected with J6/JFH1 with NS5A of the indicated isolate (or ISDR type). J6/JFH1 was included with two infectious doses to control for impact of dose variability. The infectious dose of other recombinants was in the range between. […] On day three cells were fixed and immunostained for NS3 expression. The number of single infected cells was determined by automated counting of individual wells. Values are shown as percentage infected cells compared to the average for non-treated controls of the given recombinant. Data were fitted to a sigmoidal dose-response curve with the equation Y=1/(1+10^((Log(EC50)−Log(IU/mL))*HillSlope)), where Y is the response in %.
(§5) 5×10^3 naïve Huh7.5 cells were plated per well in a poly-D-lysine coated 96-well plate (Nunc, Roskilde, D K) one day before infection with different recombinant viruses. Infectious doses were chosen to aim at 400-1000 single infected cells in non-treated wells at the end of the experiment. J6/JFH1 was included with two infectious doses (high and low) to control for impact of dose variability. The infectious dose of other recombinants was in the range between. […] On day three cells were fixed and immunostained for NS3 expression as described above. In parallel, cell viability was monitored with CellTiter™ 96 AQueous One Solution Cell Proliferation Assay (Promega, Madison, Wis. USA). The number of single infected cells was determined by automated counting of individual wells as described above.
(§6) On day three cells were fixed and immunostained for NS3 expression. The number of single infected cells was determined by automated counting (FIG. 15).

[6] = system: QC69(7a) NS5A recombinant; assay: IFN-alpha 2b treatment of infected cultures; type: cell-based, hepatitis C virus; conditions: genotype 7a, isolate QC69 NS5A recombinant
Protocol: as §4, §5, §6

[7] = system: J4(1b) NS5A ISDR mutant recombinant; assay: IFN-alpha 2b treatment of infected cultures; type: cell-based, hepatitis C virus; conditions: genotype 1b, isolate J4 NS5A
Protocol: as §4, §5, §6

[8] = system: JFH1(2a) NS5A (J6/JFH1); assay: IFN-alpha 2b treatment of infected cultures; type: cell-based, hepatitis C virus; conditions: genotype 2a, isolate JFH1 NS5A (J6/JFH1)
Protocol: as §4, §5, §6

[9] = system: J6(2a) NS5A recombinant; assay: IFN-alpha 2b treatment of infected cultures; type: cell-based, hepatitis C virus; conditions: genotype 2a, isolate J6 NS5A recombinant
Protocol: as §4, §5, §6

[10] = system: HK6a(6a) NS5A recombinant; assay: IFN-alpha 2b treatment of infected cultures; type: cell-based, hepatitis C virus; conditions: genotype 6a, isolate HK6a NS5A recombinant
Protocol: as §4, §5, §6

[11] = system: TN(1a) NS5A recombinant; assay: IFN-alpha 2b treatment of infected cultures; type: cell-based, hepatitis C virus; conditions: genotype 1a, isolate TN NS5A recombinant
Protocol: as §4, §5, §6

[12] = system: S52(3a) NS5A recombinant; assay: IFN-alpha 2b treatment of infected cultures; type: cell-based, hepatitis C virus; conditions: genotype 3a, isolate S52 NS5A recombinant
Protocol: as §4, §5, §6

[13] = system: H77C(1a) NS5A recombinant; assay: IFN-alpha 2b treatment of infected cultures; type: cell-based, hepatitis C virus; conditions: genotype 1a, isolate H77C NS5A recombinant
Protocol: as §4, §5, §6

[14] = system: J4(1b) NS5A recombinant; assay: IFN-alpha 2b treatment of infected cultures; type: cell-based, hepatitis C virus; conditions: genotype 1b, isolate J4 NS5A recombinant
Protocol: as §4, §5, §6

[15] = system: SA13(5a) NS5A recombinant; assay: IFN-alpha 2b treatment of infected cultures; type: cell-based, hepatitis C virus; conditions: genotype 5a, isolate SA13 NS5A recombinant
Protocol: as §4, §5, §6

ED43/JFH1(ED43-NS5A): ED43 Core-NS2/NS5A recombinant without mutations adaptive for ED43/JFH1, SEQ ID NO 51
spread / replication in culture ([1]; after transfection into Huh7.5 cells): never spread in culture

ED43/JFH12819,3269(ED43-NS5A)5270/7131: ED43 Core-NS2/NS5A recombinant with T5270C/A7131G, SEQ ID NO 193
spread in culture / to the majority of culture, day after transfection ([1]; Huh7.5 cells, after transfection of RNA transcripts): 17 days
percentage of culture infected [1]: 30%

ED43/JFH12819, 3269(ED43-NS5A): JFH1-based recombinant with Core-NS2 and NS5A of genotype 4a ED43, SEQ ID NO 52
1st passage Log(FFU/mL) ([2]; Table 1b): 1.8 Log(FFU/mL)
Peak titers Transfection Log (FFUs/mL) [2]: 2.0 Log (FFUs/mL)
Peak titers Viral passage Log (FFUs/mL) [2]: 1.8 Log (FFUs/mL)
percentage of culture infected [1]: 1%
Genetically stable [3]: No
1st passage Log(IU/mL) [4]: 7.1 Log(IU/mL)
Peak titers Viral passage Log (IU/mL) ([4]; Table 2, maximum HCV RNA titer in all passage samples analyzed): 7.1 Log (IU/mL)

HK6a/JFH11389, 1590(HK6a-NS5A)7161: HK6a Core-NS2/NS5A recombinant with T7161A, SEQ ID NO 57
Transfection Log(FFU/mL) ([2]; Table 1b, maximum infectivity titer after transfection, Core-NS2 and NS5A of same genotype): 2.7 Log(FFU/mL)
1st passage Log(FFU/mL) ([2]; Table 1b): 3.3 Log(FFU/mL)
Peak titers Transfection Log (FFUs/mL) [2]: 2.7 Log (FFUs/mL)
Peak titers Viral passage Log (FFUs/mL) [2]: 3.3 Log (FFUs/mL)

HK6a/JFH11389, 1590(HK6a-NS5A): JFH1-based recombinant with Core-NS2 and NS5A of genotype 6a HK6a, SEQ ID NO 56
1st passage Log(IU/mL) [4]: 7.0 Log(IU/mL)

IFN-α
IFN-α, EC50 (IU/mL), original [5]: 0.15 IU/mL
IFN-α, EC50 (IU/mL), original [6]: 0.18 IU/mL
IFN-α, EC50 (IU/mL), 'Sensitive-type' ISDR mutant [7]: 0.12 IU/mL
IFN-α, EC50 (IU/mL), original [8]: 0.25 IU/mL
IFN-α, EC50 (IU/mL), original [9]: 0.12 IU/mL
IFN-α, EC50 (IU/mL), original [10]: 0.21 IU/mL
IFN-α, EC50 (IU/mL), original [11]: 0.28 IU/mL
IFN-α, EC50 (IU/mL), original [12]: 0.27 IU/mL
IFN-α, EC50 (IU/mL), original [13]: 0.25 IU/mL
IFN-α, EC50 (IU/mL), original [14]: 0.12 IU/mL
IFN-α, EC50 (IU/mL), original [15]: 0.32 IU/mL
